Structures can show the parent of a compound that is named as a salt.
Experiments:
SB.mhdgc-1 = test: AC50 for growth inhibition (viability) (log10 M); higher = less potent; conditions: SB.mhdgc-1 (hereditary c.1380delA CDH1 gastric cancer)
Method in brief: (§1)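 Gastric cancer cells derived from patients with hereditary or sporadic disease were seeded at 500 cells in 5 μL medium per 1536 well. A pintool delivered 23 nL of compound in DMSO, as 11 threefold dilutions from a final 46 μM. After 48 h, CellTiter-Glo was added for 30 min at room temperature and luminescence was read on a ViewLux. The log half-maximal activity concentration was taken from a four-parameter fit of viability normalised to DMSO, using only high-quality curve classes.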

SB.msgc-1 = test: as above; conditions: SB.msgc-1 (sporadic gastric cancer)
Method in brief: as §1

Structure (SMILES) | AC50 for growth inhibition (log10 M) (SB.mhdgc-1) | AC50 for growth inhibition (log10 M) (SB.msgc-1)
OC[C@H]1O[C@H](C[C@@H]1O)N2/C=C(C(=O)NC2=O)/C(F)(F)F [Trifluridine] | -6.48 | -5.78
CCN(CC)CCOc1ccc(Cc2ccccc2)cc1 [Tesmilifene hydrochloride] | -4.48 | -5.18
COC1=CC(=CC(=C1)C2=CC=C3N=CC\4=C(N(C(=O)\C=C4)C5=CC(=C(C=C5)N6CCNCC6)C(F)(F)F)C3=C2)OC | -5.33 | -5.43
CCC(C1CCC(C)C(O1)C(C)C(O)C(C)C(=O)C(CC)C2OC\3(O[C@]4(CC[C@@](C)(O4)C5CC[C@@](O)(CC)C(C)O5)C(O)\C=C3)C(C)CC2C)C([O-])=O (some centres not stated) [Salinomycin] | -6.28 | -6.58
CNC1CCCN(c2c(F)cc3c(=O)c(C(=O)O)cn(C4CC4)c3c2OC)C1 (configuration not stated) [Balofloxacin] | -5.63 | -4.83
C\C1=C\N([C@H]2C[C@H](N=[N+]=[N-])[C@@H](CO)O2)C(=O)NC1=O [Zidovudine] | -5.03 | -4.58
Cc1ccc(C(=O)Nc2cccc(C(F)(F)F)c2)cc1-c1ccc2nc(NCCN3CCOCC3)ncc2c1 [AMG-47a] | -5.28 | -5.03
COc1cc(C(C)C)c(Oc2cnc(NC(CO)CO)nc2N)cc1I [Ro 51] | -6.63 | -6.18
COc1ccc2cc3[n+](cc2c1OC)CCc1cc2c(cc1-3)OCO2 [Berberine] | -4.98 | -5.18
CN1/C=C(\N=C(NC2=CC=C(C=C2)C(=O)N3CCOCC3)/C1=O)/C4=C(C)C(=CC=C4)NC(=O)C5=CC=C(C=C5)C(C)(C)C [CGI-1746] | -4.63 | -5.23
c1ccc2c(CCNc3ccc(Nc4ccncc4)cc3)c[nH]c2c1 [Serdemetan] | -5.63 | -4.73
CN1[C@@H]2CC(O)C[C@H]1[C@@H]1O[C@@H]12 (some centres not stated) [Scopine] | -4.78 | -4.83
O=C(NCC1CCCCN1)c1cc(OCC(F)(F)F)ccc1OCC(F)(F)F (configuration not stated) [Flecainide] | -5.03 | -5.03
COc1cc2ncnc(-n3nc(-c4ccccn4)nc3N)c2cc1OC | -5.03 | -4.78
CN1CCN(CCOc2cc(OC3CCOCC3)c3c(Nc4c(Cl)ccc5c4OCO5)ncnc3c2)CC1 [Saracatinib] | -4.63 | -5.88
Cc1cc(Nc2cc(CN3CCOCC3)c3nc(C)c(Cc4ccc(Cl)cc4F)n3n2)[nH]n1 [Gandotinib] | -4.68 | -4.73
COc1ccc(-c2nc(N3CCOCC3)c3sc(CN(C)c4ncc(C(=O)NO)cn4)cc3n2)cn1 [CUDC-907] | -6.28 | -7.83
CCCCc1oc2ccc(NS(C)(=O)=O)cc2c1C(=O)c1ccc(OCCCN(CCCC)CCCC)cc1 [Dronedarone] | -4.73 | -4.63
Cc1ccc(C(=O)Nc2ccc(CN3CCN(C)CC3)c(C(F)(F)F)c2)cc1C#Cc1cnc2cccnn12 [Ponatinib] | -5.78 | -4.88
COc1cc(Nc2ncc(F)c(Nc3ccc4c(n3)N(COP(=O)(O)O)C(=O)C(C)(C)O4)n2)cc(OC)c1OC [Fostamatinib disodium] | -5.33 | -5.93
C=CC(=O)N1CCC[C@@H](n2nc(-c3ccc(Oc4ccccc4)cc3)c3c(N)ncnc32)C1 | -5.98 | -7.48
CCC1=C2C=C(OC(=O)N3CCC(CC3)N4CCCCC4)C=CC2=NC\5=C1CN6C(=O)\C7=C(/C=C56)[C@@](O)(CC)C(=O)OC7 [Irinotecan] | -6.78 | -6.73
Cc1n[nH]c2ccc(-c3cncc(OC[C@@H](N)Cc4ccccc4)c3)cc12 | -6.43 | -5.43
NC(=O)N1CCC(CC(=O)N2CCC([C@H]3c4ncc(Br)cc4CCc4cc(Cl)cc(Br)c43)CC2)CC1 [Lonafarnib] | -4.78 | -4.78
COC1=CC=C(C=C1)/C2=C(O)/C(=O)C3=C(O)C=C(O)C(=C3O2)CC=C(C)C [Icaritin] | -4.88 | -4.63
CCN(CC)CCCCNc1ncc2c(n1)N(C)C(=O)N(c1c(Cl)c(OC)cc(OC)c1Cl)C2 | -4.78 | -4.63

Structure (SMILES) | AC50 for growth inhibition (log10 M) (SB.mhdgc-1) | AC50 for growth inhibition (log10 M) (SB.msgc-1)
CCNC(=O)C[C@@H]1\N=C(C2=CC=C(Cl)C=C2)/C3=C(C=CC(=C3)OC)[N]4C(=NN=C14)C [I-BET762] | -6.08 | -5.63
CCCCc1oc2ccccc2c1C(=O)c1cc(I)c(OCCN(CC)CC)c(I)c1 [Amiodarone] | -4.88 | -5.03
Cc1cnc(Nc2ccc(CN3CCOCC3)cc2)nc1Nc1cccc([S+](=O)([O-])NC(C)(C)C)c1 [TG-46] | -4.68 | -4.83
COc1cc([C@@H]2c3cc4c(cc3[C@@H](O)C3COC(=O)C32)OCO4)cc(OC)c1O (some centres not stated) [4-Demethylepipodophyllotoxin] | -7.38 | -6.63
CCOc1cc2c(c(F)c1OCC)C(=N)N(CC(=O)c1cc(N3CCOCC3)c(OC)c(C(C)(C)C)c1)C2 [E5555] | -5.03 | -4.68
Cc1ccc(-c2ncn(-c3ccc(Nc4nccc(-c5cccc(N6CCOCC6)c5)n4)cc3)n2)cn1 [SR-3306] | -6.18 | -7.13
CC1=CC=CC=C1N2\C(=N/C3=C(C(=CC=C3)C)C2=O)C[N]4C=NC5=C4N=CN=C5N | -5.43 | -6.23
CNC(=O)c1cc(Oc2ccc(NC(=O)Nc3ccc(Cl)c(C(F)(F)F)c3)cc2)ccn1 [Sorafenib] | -5.08 | -4.98
N[C@@H](Cc1ccc(N(CCCl)CCCl)cc1)C(=O)O [Melphalan] | -6.08 | -5.83
OC[C@H]1O[C@@H](Oc2ccc(O)cc2)[C@H](O)[C@@H](O)[C@@H]1O [Arbutin] | -4.93 | -4.78
CC1(C)O[C@@H]2C[C@H]3[C@@H]4C[C@H](F)C5=CC(=O)C=C[C@]5(C)[C@@]4(F)[C@@H](O)C[C@]3(C)[C@]2(C(=O)CO)O1 [Fluocinolone acetonide] | -5.33 | -4.93
OC1=C(C=CC=C1)C2=CC=C(C=C2)C3=CSC4=C3C(=C(/C#N)C(=O)N4)/O | -5.83 | -4.78
CN1CCC(CC1)COC2=CN=C(N=C2)C3=CC(=CC=C3)CN4/N=C(\C=C/C4=O)C5=CC(=CC=C5)C#N | -7.48 | -6.78
ClC1=CC\2=C(OC3=C(C=CC=C3)\N=C2N4CCNCC4)C=C1 [Amoxapine] | -4.63 | -4.78
CC(C)C[C@H](NC(=O)CNC(=O)c1cc(Cl)ccc1Cl)B(O)O [Ixazomib] | -6.63 | -7.03
O=C1\C=C/C=C2/[C@H]3CNC[C@H](C3)CN12 [Cytisine] | -6.03 | -4.83
CC(C(=O)O)c1ccc2c(c1)CC(=O)c1ccccc1S2 (configuration not stated) [Zaltoprofen] | -5.43 | -5.13
O=C(NCCCNc1nc(Nc2cccc(NC(=O)N3CCCC3)c2)ncc1I)c1cccs1 [BX-795] | -4.83 | -4.88
CNCC(O)C(O)C(O)C(O)CO.O=C(O)c1ccc(-c2cc3cccnc3c(-c3ccc4nonc4c3)n2)cc1 [NVP-ABE171] | -4.58 | -4.63
COc1cc2ncnc(Nc3cccc(Br)c3)c2cc1OC | -7.08 | -6.88
C[C@H]1[C@@H](CC(C[C@H]2O[C@@H]3O[C@]4(C)CC[C@H]5[C@H](C)CC[C@@H]([C@H]2C)[C@@]35OO4)C[S+](=O)([O-])c2ccc(COC(=O)N(C)C)cc2)O[C@@H]2O[C@]3(C)CC[C@H]4[C@H](C)CC[C@@H]1[C@@]24OO3 [ASR-isobudimer-SO2Ph-4-CH2OC(O)NMe2] | -6.93 | -6.48
Cc1ccc(NC(=O)Nc2cc(C(F)(F)F)ccc2F)cc1Nc1ccc2c(c1)NC(=O)/C2=C\c1ccc[nH]1 [GNF-5837] | -4.83 | -4.73
CN1CCN(CCCN2c3ccccc3Sc3ccc(C(F)(F)F)cc32)CC1 [Stelazine  trifluoperzine] | -5.63 | -5.08
CCOC(=O)[C@@H](N)Cc1ccc(-c2cc(O[C@H](c3ccc(Cl)cc3-n3ccc(C)n3)C(F)(F)F)nc(N)n2)cc1.O=C(O)CNC(=O)c1ccccc1 [Telotristat etiprate] | -4.78 | -5.03
O=C(NCc1ccccc1)c1csc(Nc2ccncn2)n1 [Thiazovivin] | -4.78 | -4.78

— the supplement of paper PMC5412046
